From patent US20250154109A1, “SODIUM CHANNEL BLOCKING COMPOUNDS, DERIVATIVES THEREOF, AND METHODS OF THEIR USE” (LATIGO BIOTHERAPEUTICS, INC, priority 2022, published 2025) come the findings set out here.

Some results are limits rather than exact numbers.

The target of experiment [1] is T1, human Nav1.8 (Homo sapiens, UniProt Q9Y5Y9). The experiment can be described thus: Sophion Qpatch II assay (automated patch clamp). Conditions: resting state block (TP1 measurement), human Nav1.8 HEK293 cells, read-out: P1 IC50. The experiment is classed as cell-based. As to the method:
Compounds were tested on recombinant human Nav1.8/01 stably transfected HEK293 (Eurofins, CYL3025, St. Charles, MO) cells using the Qpatch II system (Sophion Bioscience A/S, Ballerup—Denmark), an automated patch clamp device. Cells were cultured at 37° C./5% CO2 in DMEM/F-12 supplemented with 10% fetal bovine serum, lx Non-Essential Amino Acids, and selection antibiotics (0.625 μg/mL Puromycin, 400 μg/mL Geneticin, and 100 μg/mL Hygromycin). One or two days prior to recording, cells were moved to a lower temperature 30° C./5% CO2 incubator to increase surface expression of the channels. On the day of the recordings, cells in culture dishes were washed twice with Ca^2+—Mg^2+ free DPBS and treated with Detachin (Genlantis, San Diego) for 3 minutes and then resuspended in Serum Free Medium (EX-CELL® ACF CHO Medium for Cell Culture (Sigma-Aldrich) supplemented with 0.04 mg/mL soybean trypsin Inhibitor and 25 mM HEPES (all components supplied by Sigma-Aldrich, St. Louis, MO) and allowed to recover for a minimum of 20 minutes in the onboard Qstirrer. All experiments were performed at ambient temperature. Intracellular solution contained (mM): CsCl, 50; CsF, 90; MgCl2, 2; EGTA, 5; HEPES, 10; pH adjusted to 7.2 with CsOH. Extracellular solution contained (mM): NaCl, 137; KCl, 4; CaCl2), 3.8; MgCl2, 1; HEPES, 10; Glucose, 10; pH adjusted to 7.4 with NaOH. 500 nM tetrodotoxin (TTX) was added to the extracellular solution to block endogenous TTX-sensitive sodium currents.
Compounds were tested in an interleaved manner across two cohorts of wells to develop an aggregate 8-point concentration response curve. Final concentrations include 0.5% DMSO and 0.03% pluronic Acid. The concentration range spanned a range from 0.01-300 nM. Compounds were diluted 1:10 with extracellular solution within their respective cohort. (R)-2-(4-fluoro-2-methylphenoxy)-N-(3-(S-methylsulfonimidoyl)phenyl)-5-(trifluoromethyl)nicotinamide served as a positive control while DMSO (0.5% by volume) served as a vehicle control to ascertain assay performance.
Whole cell patch clamp recordings were conducted according to Sophion standard procedure for Qpatch II®. Cells were held at a holding potential of −120 mV. A depolarizing step to 10 mV for 30 ms was applied (TP1 measurement), followed by a hyperpolarization step to −100 mV for 20 ms. Due to instability observed at long depolarized potentials, there were no second TP2 measurements attempted. Inter-sweep interval was 15 sec. Following establishment of the whole-cell configuration in extracellular solution, cells were washed twice in extracellular solution containing 0.5% DMSO and 0.03% pluronic acid to stabilize the baseline current. Compounds were then applied by the Qpatch II system into each well in an ascending manner within cohort and the current was recorded for five minutes for each concentration. Percent of current remaining was determined by taking the average of the last 5 sweeps within each concentration and normalizing to the latest pre-compound saline period. The potency of the compounds was assessed on resting state block (TP1 measurement) only to obtain IC50 values. Wells whose initial sodium current magnitude were below 2 nA or whole cell resistance fell below 100 MQ were excluded from analysis.
Examples 220 to 224, Examples 237 to 257 and Example 259 are assayed using Sophion Qpatch II assay described above.
(The patch-clamp technique gives a direct electrical read-out from membranes.)

Experiment [2] addresses T1, human Nav1.8. The experiment can be described thus: SyncroPatch384PE assay (automated patch clamp). The experiment is classed as cell-based. Conditions: human Nav1.8/b3 CHO cells.
Where [3] appears, read: inactivated state block (P2 measurement), read-out: P2 IC50.
[4] abbreviates: resting state block (P1 measurement), read-out: P1 IC50.

T1 sequence (Q9Y5Y9 whole entry): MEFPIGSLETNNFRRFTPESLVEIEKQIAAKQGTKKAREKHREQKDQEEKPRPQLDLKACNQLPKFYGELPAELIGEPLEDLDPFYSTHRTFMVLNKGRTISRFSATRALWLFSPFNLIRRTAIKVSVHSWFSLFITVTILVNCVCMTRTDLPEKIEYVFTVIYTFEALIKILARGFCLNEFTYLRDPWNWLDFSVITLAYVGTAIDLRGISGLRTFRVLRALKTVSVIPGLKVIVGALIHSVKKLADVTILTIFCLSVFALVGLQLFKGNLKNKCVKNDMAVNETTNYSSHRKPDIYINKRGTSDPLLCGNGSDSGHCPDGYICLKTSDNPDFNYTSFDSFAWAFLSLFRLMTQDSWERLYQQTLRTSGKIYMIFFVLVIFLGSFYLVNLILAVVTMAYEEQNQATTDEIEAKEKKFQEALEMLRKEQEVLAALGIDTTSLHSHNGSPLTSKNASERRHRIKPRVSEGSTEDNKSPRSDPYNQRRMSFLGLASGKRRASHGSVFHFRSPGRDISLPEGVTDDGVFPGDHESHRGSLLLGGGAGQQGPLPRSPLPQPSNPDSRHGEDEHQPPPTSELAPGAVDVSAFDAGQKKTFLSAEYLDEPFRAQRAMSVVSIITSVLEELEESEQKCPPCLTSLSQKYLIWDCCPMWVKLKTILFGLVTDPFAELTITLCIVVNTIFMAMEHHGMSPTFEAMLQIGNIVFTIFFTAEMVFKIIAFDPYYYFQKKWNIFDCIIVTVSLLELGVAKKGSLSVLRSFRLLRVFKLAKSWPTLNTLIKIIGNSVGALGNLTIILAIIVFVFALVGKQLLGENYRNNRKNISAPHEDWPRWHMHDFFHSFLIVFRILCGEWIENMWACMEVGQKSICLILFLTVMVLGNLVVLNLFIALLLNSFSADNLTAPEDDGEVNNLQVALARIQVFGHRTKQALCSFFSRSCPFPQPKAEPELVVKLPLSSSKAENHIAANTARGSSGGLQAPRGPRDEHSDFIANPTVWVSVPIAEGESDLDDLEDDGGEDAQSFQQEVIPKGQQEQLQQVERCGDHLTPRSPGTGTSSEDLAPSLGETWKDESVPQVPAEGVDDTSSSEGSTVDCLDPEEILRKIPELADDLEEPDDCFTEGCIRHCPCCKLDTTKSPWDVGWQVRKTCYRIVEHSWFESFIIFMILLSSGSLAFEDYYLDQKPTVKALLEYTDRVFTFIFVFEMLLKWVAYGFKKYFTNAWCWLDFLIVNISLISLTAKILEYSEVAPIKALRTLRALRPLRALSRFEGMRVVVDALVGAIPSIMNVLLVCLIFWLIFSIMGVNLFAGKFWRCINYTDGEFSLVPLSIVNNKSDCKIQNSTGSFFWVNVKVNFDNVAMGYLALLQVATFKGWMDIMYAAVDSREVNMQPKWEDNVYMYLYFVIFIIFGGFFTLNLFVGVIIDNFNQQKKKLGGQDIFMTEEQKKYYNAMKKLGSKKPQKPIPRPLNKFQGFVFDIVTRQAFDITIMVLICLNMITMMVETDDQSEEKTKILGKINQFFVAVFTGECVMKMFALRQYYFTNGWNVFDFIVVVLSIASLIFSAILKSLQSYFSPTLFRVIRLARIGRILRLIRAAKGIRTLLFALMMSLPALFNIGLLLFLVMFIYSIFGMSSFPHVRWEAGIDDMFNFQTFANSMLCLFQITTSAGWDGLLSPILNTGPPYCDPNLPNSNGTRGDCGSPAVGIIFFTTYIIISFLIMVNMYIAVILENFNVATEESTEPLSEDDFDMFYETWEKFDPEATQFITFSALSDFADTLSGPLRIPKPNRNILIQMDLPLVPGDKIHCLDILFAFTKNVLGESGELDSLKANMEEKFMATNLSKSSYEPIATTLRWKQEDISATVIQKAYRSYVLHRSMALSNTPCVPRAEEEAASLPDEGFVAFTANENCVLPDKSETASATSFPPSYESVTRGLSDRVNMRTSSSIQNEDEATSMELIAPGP

As a reminder, the IC50 is the concentration at which inhibition is half-maximal. As for `Cc1c(C(F)(F)F)cnc(N2CCCC(F)(F)CC2)c1C(=O)N[C@H]1C[C@H](C(N)=O)C1` [Example 257, N-((trans)-3-carbamoylcyclobutyl)-2-(4,4-difluoroazepan-1-yl)-4-methyl-5-(trifluoromethyl)nicotinamide], the IC50 in experiment [1] was 50 to 100 nM.
Same read-out and setting: the figure for `C[S@](=N)(=O)c1cccc(NC(=O)c2cc(Cl)c(C(F)(F)F)cc2N2CCC(F)(F)CC2)c1` [Example 255, (S)-5-chloro-2-(4,4-difluoropiperidin-1-yl)-N-(3-(S-methylsulfonimidoyl)phenyl)-4-(trifluoromethyl)benzamide] is 5 to 50 nM; for `Cc1c(C(F)(F)F)cnc(N2CCO[C@@H](C(F)(F)F)C2)c1C(=O)Nc1cccc([S@](C)(=N)=O)c1` [Example 238, 4-methyl-N-(3-((R)—S-methylsulfonimidoyl)phenyl)-5-(trifluoromethyl)-2-((R)-2-(trifluoromethyl)morpholino)nicotinamide] it is more than 200 nM; for `Cc1c(C(=O)Nc2ccnc([S@@](C)(=N)=O)c2)c(N2CCCC(F)(F)CC2)nc(C2CC2)c1C(F)(F)F` [Example 221, (S)-6-cyclopropyl-2-(4,4-difluoroazepan-1-yl)-4-methyl-N-(2-(S-methylsulfonimidoyl)pyridin-4-yl)-5-(trifluoromethyl)nicotinamide] it is 5 to 50 nM.
Still for that read-out and setting: the result for `C[S@@](=N)(=O)c1cc(NC(=O)c2cc(Cl)c(C(F)(F)F)cc2N2CCC(C(F)(F)F)CC2)ccn1` [Example 243, (R)-5-chloro-N-(2-(S-methylsulfonimidoyl)pyridin-4-yl)-4-(trifluoromethyl)-2-(4-(trifluoromethyl)piperidin-1-yl)benzamide] reads 50 to 100 nM.
On to `Cc1c(C(=O)Nc2ccnc([S@](C)(=N)=O)c2)c(N2CCCC(F)(F)CC2)cc(C2CC2)c1C(F)(F)F` [Example 250, (R)-4-cyclopropyl-6-(4,4-difluoroazepan-1-yl)-2-methyl-N-(2-(S-methylsulfonimidoyl)pyridin-4-yl)-3-(trifluoromethyl)benzamide], for which, in experiment [1], the IC50 is not above 5 nM.
Regarding `NC(=O)[C@H]1C[C@H](NC(=O)c2cc(Cl)c(C(F)(F)F)cc2N2CCCC(F)(F)CC2)C1` [Example 252, N-((trans)-3-carbamoylcyclobutyl)-5-chloro-2-(4,4-difluoroazepan-1-yl)-4-(trifluoromethyl)benzamide], the IC50 in experiment [1] lay in the range of 50 to 100 nM.
The same measure, in the same setting: the result for `C[S@](=N)(=O)c1cc(NC(=O)c2cc(Cl)c(C(F)(F)F)cc2N2CCC(F)(F)CC2)ccn1` [Example 247, (S)-5-chloro-2-(4,4-difluoropiperidin-1-yl)-N-(2-(S-methylsulfonimidoyl)pyridin-4-yl)-4-(trifluoromethyl)benzamide] reads 100 to 200 nM.
In the case of `Cc1c(C(F)(F)F)cnc(N2CCO[C@H](C(F)(F)F)C2)c1C(=O)Nc1cccc([S@](C)(=N)=O)c1` [Example 240, 4-methyl-N-(3-((R)—S-methylsulfonimidoyl)phenyl)-5-(trifluoromethyl)-2-((S)-2-(trifluoromethyl)morpholino)nicotinamide], in experiment [1], the IC50 lay in the range of 5 to 50 nM.
As for `Cc1c(-c2cnn(C)c2)cnc(N2CCCC(F)(F)CC2)c1C(=O)Nc1cccc([S@@](C)(=O)=NC(=O)[C@@H](C)O)c1` [Example 230, 2-(4,4-difluoroazepan-1-yl)-N-(3-((R)-N-((R)-2-hydroxypropanoyl)-S-methylsulfonimidoyl)phenyl)-4-methyl-5-(1-methyl-1H-pyrazol-4-yl)nicotinamide], the concentration for half-maximal inhibition (IC50) in experiment [2] (setting [3]) and in experiment [2] (setting [4]) was 5 to 50 nM in each case.
Regarding `Cc1cc(C(N)=O)nc(N2CCCC(F)(F)CC2)c1C(=O)Nc1cccc([S@](C)(=N)=O)c1` [Example 153, (R)-6-(4,4-difluoroazepan-1-yl)-4-methyl-N5-(3-(S-methylsulfonimidoyl)phenyl)pyridine-2,5-dicarboxamide], the IC50 in experiment [2] (setting [3]) and in experiment [2] (setting [4]) was more than 200 nM throughout.
For `Cc1c(-c2cn[nH]c2)cnc(N2CCCC(F)(F)CC2)c1C(=O)Nc1cccc([S@](C)(=N)=O)c1` [Example 144, (R)-2-(4,4-difluoroazepan-1-yl)-4-methyl-N-(3-(S-methylsulfonimidoyl)phenyl)-5-(1H-pyrazol-4-yl)nicotinamide], the IC50 in experiment [2] (setting [3]) and in experiment [2] (setting [4]) was more than 200 nM in each case.
Consider `C[S@@](=N)(=O)c1cc(NC(=O)c2cc(Cl)c(C(F)(F)F)cc2N2CCO[C@H](C(F)(F)F)C2)ccn1` [Example 218, 5-chloro-N-(2-((R)—S-methylsulfonimidoyl)pyridin-4-yl)-4-(trifluoromethyl)-2-((S)-2-(trifluoromethyl)morpholino)benzamide], for which the IC50 in experiment [2] (setting [3]) and in experiment [2] (setting [4]) was 5 to 50 nM each time.
Turning to `Cc1c(F)cnc(N2CCCC(F)(F)CC2)c1C(=O)Nc1cccc([S@](C)(=N)=O)c1` [Example 168, (R)-2-(4,4-difluoroazepan-1-yl)-5-fluoro-4-methyl-N-(3-(S-methylsulfonimidoyl)phenyl)nicotinamide], the IC50 in experiment [2] (setting [3]) and in experiment [2] (setting [4]) was 5 to 50 nM each time.
Regarding `Cc1c(C(F)(F)F)cnc(N2CCCC(F)(F)CC2)c1C(=O)Nc1cccc([S@@](C)(=N)=O)c1` [Example 163, (S)-2-(4,4-difluoroazepan-1-yl)-4-methyl-N-(3-(S-methylsulfonimidoyl)phenyl)-5-(trifluoromethyl)nicotinamide], the IC50 in experiment [2] (setting [3]) and in experiment [2] (setting [4]) was not above 5 nM in each case.
Regarding `Cc1c(-c2ccncc2)cnc(N2CCCC(F)(F)CC2)c1C(=O)Nc1cccc(S(C)(=N)=O)c1` (stereo not drawn) [Example 85, 6-(4,4-difluoroazepan-1-yl)-4-methyl-N-(3-(S-methylsulfonimidoyl)phenyl)-[3,4bipyridine]-5-carboxamide], the IC50 in experiment [2] (setting [3]) and in experiment [2] (setting [4]) was 50 to 100 nM throughout.
As to `Cc1c(-c2ccc(C(F)F)cc2)cnc(N2CCCC(F)(F)CC2)c1C(=O)Nc1cccc(S(C)(=N)=O)c1` (stereo not drawn) [Example 87, 2-(4,4-difluoroazepan-1-yl)-5-(4-(difluoromethyl)phenyl)-4-methyl-N-(3-(S-methylsulfonimidoyl)phenyl)nicotinamide], the IC50 in experiment [2] (setting [3]) and in experiment [2] (setting [4]) was not above 5 nM in each case.
As for `Cc1c(C(F)(F)F)nnc(N2CCCC(F)(F)CC2)c1C(=O)Nc1cccc([S@@](C)(=O)=NC(=O)[C@H](C)O)c1` [Example 233, 3-(4,4-difluoroazepan-1-yl)-N-(3-((R)-N-((S)-2-hydroxypropanoyl)-S-methylsulfonimidoyl)phenyl)-5-methyl-6-(trifluoromethyl)pyridazine-4-carboxamide], the IC50 in experiment [2] (setting [3]) and in experiment [2] (setting [4]) was not above 5 nM in each case.
`Cc1c(C(F)(F)F)nnc(N2CCCCCC2)c1C(=O)Nc1cccc(S(C)(=N)=O)c1` (stereo not drawn) [Example 7, 3-(azepan-1-yl)-5-methyl-N-(3-(S-methylsulfonimidoyl)phenyl)-6-(trifluoromethyl)pyridazine-4-carboxamide]: the IC50 in experiment [2] (setting [3]) and in experiment [2] (setting [4]) was 100 to 200 nM throughout.
As to `Cc1c(C#N)cnc(N2CCCC(F)(F)CC2)c1C(=O)Nc1cccc([S@](C)(=N)=O)c1` [Example 125, (R)-5-cyano-2-(4,4-difluoroazepan-1-yl)-4-methyl-N-(3-(S-methylsulfonimidoyl)phenyl)nicotinamide], the IC50 in experiment [2] (setting [3]) and in experiment [2] (setting [4]) was 5 to 50 nM throughout.
`Cc1c(-c2cnn(C)c2)cnc(N2CCCC(F)(F)CC2)c1C(=O)Nc1cccc([S@@](C)(=O)=NC(=O)C2COC2)c1` [Example 54, (R)-2-(4,4-difluoroazepan-1-yl)-4-methyl-5-(1-methyl-1H-pyrazol-4-yl)-N-(3-(S-methyl-N-(oxetane-3-carbonyl)sulfonimidoyl)phenyl)nicotinamide]: the IC50 in experiment [2] (setting [3]) and in experiment [2] (setting [4]) was 5 to 50 nM throughout.
